Measured values reported in US7700786B2, “Pyrazole derivative, intermediate therefor, processes for producing these, and herbicide containing these as active ingredient” (Sagami Chemical Research Center, priority 2001, dated 2010).

Legend:
Abutilon theophrasti = assay: Herbicidal efficacy test by foliar treatment after germination under upland field condition; assay type: in vivo; conditions: Dc: Digitaria ciliaris (table footnote; method names Abutilon theophrasti), dose 1 kg/ha, rated 1 to 5 on the 14th day after treatment
Amaranthus viridis [1] = assay: as above; assay type: in vivo; conditions: dose 1 kg/ha, rated 1 to 5 on the 14th day after treatment
Source text: (§1) A vat having an area of 5×10 cm^2 and a depth of 5 cm was filled with upland field soil, and seeds of Chenopodium album, Echinochloa crus-galli, Amaranthus viridis and Abutilon theophrasti were sown thereon and covered with soil by a depth of 0.5 cm. Water was sprayed as required to grow them for 14 days.

Echinochloa crus-galli [2] = assay: as above; assay type: in vivo; conditions: dose 1 kg/ha, rated 1 to 5 on the 14th day after treatment
Source text: as §1

Chenopodium album [3] = assay: as above; assay type: in vivo; conditions: dose 1 kg/ha, rated 1 to 5 on the 14th day after treatment
Source text: as §1

Cyperus difformis = assay: Herbicidal efficacy test by pre-emergence treatment under submergence condition; assay type: in vivo; conditions: 15th day after treatment, ratings of 1 to 5; further: key: 1 shows no influence; 5 shows complete die
Source text: (§3) A 1/10,000-are pot was filled with paddy field soil, and, after plowing, seeds of Echinochloa oryzicola, Cyperus difformis, Monochoria vaginalis, Scirpus juncoides, Eleocharis acicularis and other annual broadleaf weeds such as Lindernia procumbens, Rotala indica and Elatine triandra were sown. Rice (oryza sativa) seedlings (cultiver “Koshihikari”) at a 2.5-leaf stage were transplanted and kept under a submergence condition. After one day, the wettable powder or emulsifiable concentrate of the compound of the present invention, prepared according to Preparation Example, was diluted and dropped on a water surface at a predetermined dose.

Monochoria vaginalis = assay: as above; assay type: in vivo; conditions: 15th day after treatment, ratings of 1 to 5; further: key: 1 shows no influence; 5 shows complete die
Source text: as §3

Eleocharis acicularis = assay: as above; assay type: in vivo; conditions: 15th day after treatment, ratings of 1 to 5; further: key: 1 shows no influence; 5 shows complete die
Source text: as §3

Scirpus juncoides = assay: as above; assay type: in vivo; conditions: 15th day after treatment, ratings of 1 to 5
Source text: as §3

[4] = tested on: annual broadleaf weeds such as Lindernia procumbens, Rotala indica and Elatine triandra; assay: as above; assay type: in vivo; conditions: 15th day after treatment, ratings of 1 to 5
Source text: as §3

Echinochloa oryzicola = assay: as above; assay type: in vivo; conditions: 15th day after treatment, ratings of 1 to 5
Source text: as §3

Digitaria ciliaris = assay: Herbicidal efficacy test by soil treatment before germination under upland field condition; assay type: in vivo; conditions: dose 1 kg/ha; 21st day after treatment; ratings of 1 to 5
Source text: (§2) A vat having an area of 5×10 cm^2 and a depth of 5 cm was filled with upland field soil, and seeds of Chenopodium album, Echinochloa crus-galli, Amaranthus viridis, Digitaria ciliaris and sweet corn (Zea mays) were sown thereon and covered with soil by a depth of 0.5 cm.

Amaranthus viridis [5] = assay: as above; assay type: in vivo; conditions: dose 1 kg/ha; 21st day after treatment; ratings of 1 to 5
Source text: as §2

Echinochloa crus-galli [6] = assay: as above; assay type: in vivo; conditions: dose 1 kg/ha; 21st day after treatment; ratings of 1 to 5
Source text: as §2

Chenopodium album [7] = assay: as above; assay type: in vivo; conditions: dose 1 kg/ha; 21st day after treatment; ratings of 1 to 5
Source text: as §2

sweet corn (Zea mays) = assay: Injury to corn, soil treatment before germination under upland field condition; assay type: in vivo; conditions: dose 1 kg/ha; 21st day after treatment; ratings of 1 to 5
Source text: as §2
Wherever Herbicidal activity Av is given: key: 1 shows no influence; 5 shows complete die.
Wherever Herbicidal activity Ca is given: key: 1 shows no influence; 5 shows complete die.

Compound	Herbicidal activity Dc (Abutilon theophrasti)	Herbicidal activity Av (Amaranthus viridis [1])	Herbicidal activity Ec (Echinochloa crus-galli [2])	Herbicidal activity Ca (Chenopodium album [3])	Herbicidal efficacy Cd (Cyperus difformis; dose 0.5 kg/ha)	Herbicidal efficacy Cd (Cyperus difformis; dose 1 kg/ha)	Herbicidal efficacy Mv (Monochoria vaginalis; dose 0.5 kg/ha)	Herbicidal efficacy Mv (Monochoria vaginalis; dose 1 kg/ha)	Herbicidal efficacy Ea (Eleocharis acicularis; dose 0.5 kg/ha)	Herbicidal efficacy Ea (Eleocharis acicularis; dose 1 kg/ha)	Herbicidal efficacy Sj (Scirpus juncoides; dose 0.5 kg/ha)	Herbicidal efficacy Sj (Scirpus juncoides; dose 1 kg/ha)	Herbicidal efficacy Blw ([4]; dose 0.5 kg/ha)	Herbicidal efficacy Blw ([4]; dose 1 kg/ha)	Herbicidal efficacy Eo (Echinochloa oryzicola; dose 0.5 kg/ha)	Herbicidal efficacy Eo (Echinochloa oryzicola; dose 1 kg/ha)	other results
CCCNC(=O)n1nc(Oc2ccc(C(F)(F)F)cc2[N+](=O)[O-])cc1C [Compound 3-82]	5	5	3.8	5	–	–	–	–	–	–	–	–	–	–	–	–	–
CCC(C)NC(=O)n1nc(Oc2ncc(C(F)(F)F)cc2Cl)cc1C (centres unmarked) [Compound 4-30, N-s-butyl-3-(3-chloro-5-trifluoromethylpyridin-2-yloxy)-5-methylpyrazole-1-carboxamide]	5	5	5	5	–	–	–	–	–	–	–	–	–	–	–	–	–
CNC(=O)n1nc(Oc2c(Cl)cc(C(F)(F)F)cc2Cl)cc1C [Compound 3-14]	5	5	5	5	5	5	5	5	5	5	5	5	5	5	5	5	Herbicidal activity Dc (Digitaria ciliaris): 5; Herbicidal activity Av (Amaranthus viridis [5]): 5; Herbicidal activity Ec (Echinochloa crus-galli [6]): 4.9; Herbicidal activity Ca (Chenopodium album [7]): 5
CCNC(=O)n1nc(Oc2c(Cl)cc(C(F)(F)F)cc2Cl)cc1C [Compound 3-44]	5	5	5	5	5	5	5	5	5	5	5	5	5	5	5	5	Injury Zm (sweet corn (Zea mays)): 3; Herbicidal activity Dc (Digitaria ciliaris): 5; Herbicidal activity Av (Amaranthus viridis [5]): 5; Herbicidal activity Ec (Echinochloa crus-galli [6]): 5; Herbicidal activity Ca (Chenopodium album [7]): 5
CCNC(=O)n1nc(Oc2ccc(C(F)(F)F)cc2[N+](=O)[O-])cc1C [Compound 3-67]	5	5	4.9	5	–	–	–	–	–	–	–	–	–	–	–	–	–
CCNC(=S)n1nc(Oc2ncc(C(F)(F)F)cc2Cl)cc1C [Compound 4-17, N-ethyl-3-(3-chloro-5-trifluoromethylpyridin-2-yloxy)-5-methylpyrazole-1-carbothioamide]	–	–	–	–	5	5	5	5	5	5	4.5	4.8	4.8	5	5	5	–
CCCNC(=O)n1nc(Oc2ncc(C(F)(F)F)cc2Cl)cc1C [Compound 4-23, N-propyl-3-(3-chloro-5-trifluoromethylpyridin-2-yloxy)-5-methylpyrazole-1-carboxamide]	–	–	–	–	5	5	5	5	5	5	4.9	5	4.8	5	5	5	–
CNC(=S)n1nc(Oc2c(Cl)cc(C(F)(F)F)cc2Cl)cc1C [Compound 3-15]	5	5	5	5	5	5	5	5	5	5	5	5	5	5	5	5	–
C=CCNC(=O)n1nc(Oc2c(Cl)cc(C(F)(F)F)cc2Cl)cc1C [Compound 3-130]	5	5	5	5	5	5	5	5	5	5	5	5	5	5	5	5	–
Cc1cc(Oc2c(Cl)cc(C(F)(F)F)cc2Cl)nn1C(=O)NC(C)C [Compound 3-89]	5	5	5	5	5	5	5	5	5	5	5	5	5	5	5	5	–
CCONC(=O)n1nc(Oc2c(Cl)cc(C(F)(F)F)cc2Cl)cc1C [Compound 3-158]	5	5	5	5	5	5	5	5	5	5	5	5	5	5	5	5	–
CNC(=O)n1nc(Oc2ncc(C(F)(F)F)cc2Cl)cc1C [Compound 4-6, N-methyl-3-(3-chloro-5-trifluoromethylpyridin-2-yloxy)-5-methylpyrazole-1-carboxamide]	–	–	–	–	5	5	5	5	5	5	4.6	5	5	5	4.8	5	–
CCNC(=O)n1nc(Oc2ncc(C(F)(F)F)cc2Cl)cc1C [Compound 4-16, N-ethyl-3-(3-chloro-5-trifluoromethylpyridin-2-yloxy)-5-methylpyrazole-1-carboxamide]	–	–	–	–	5	5	5	5	5	5	4.8	5	5	5	5	5	–
Cc1cc(Oc2c(Cl)cc(C(F)(F)F)cc2Cl)nn1C(=O)NCCCl [Compound 3-143]	–	–	–	–	5	5	5	5	5	5	4	5	5	5	5	5	–
Cc1cc(Oc2ncc(C(F)(F)F)cc2Cl)nn1C(=O)N(C(C)C)C(C)C [Compound 4-27, N,N-diisopropyl-3-(3-chloro-5-trifluoromethylpyridin-2-yloxy)-5-methylpyrazole-1-carboxamide]	–	–	–	–	–	–	–	–	–	–	–	–	–	–	–	–	melting point: 58 to 60 °C
CNC(=O)n1nc(Oc2c(F)cc(C(F)(F)F)cc2Cl)cc1C	–	–	–	–	–	–	–	–	–	–	–	–	–	–	–	–	melting point: 87 to 88 °C
